# Assay results: patent US20060223811A1, “Triglycerine depressant composition” (priority 2000, published 2006)
# Test system: blood triglyceride levels
# Experiment: Assay of blood triglyceride levels in dogs after 11 days of oral capsule administration (GK-GPO-POD method)
# Details: serum, relative ratio against averaged pre-dosing level (100), oral capsule once daily, mean of 5 dogs
# [1] = Table 9, pravastatin 2 mg/kg, pantethine 300 mg/kg
# [2] = Table 11, pravastatin 2, riboflavin butyrate 6, d-α-tocopherol acetate 150, ascorbic acid 500 mg/kg
# [3] = Table 12, pravastatin 2, d-α-tocopherol acetate 10, ascorbic acid 50 mg/kg
# Description: Beagle dogs aged 5 months were purchased from Covance Research Products Inc. and used after 1 month of quarantine and acclimatisation breeding.
# (3) Preparation Forms for Administration, Methods of Preparing the Formulation, and Method of Stocking the Formulation
# The calculated amounts of pravastatin or each component of the compositions based on the body weight of each dog were weighed and filled in a gelatin capsule (½ ounce) purchased from TORPAC Inc. Capsules filled with pravastatin were stocked in a refrigerator and, those filled with combination drugs stocked at room temperature until use.
# The combination drugs were filled in identical gelatin capsules.
# (4) Route of Administration and Administration Period
# Pravastatin or combination drug capsules were forcibly orally administered to each of the test animals once daily between 9:00 and 12:30. Animals were fasted for 2 or 3 hr prior to administration of the capsules.
# The administration period was 11 successive days.
# (5) Preparation of Test Samples and Procedures
# Blood (10 mL) was collected from the superficial radial vein 14 and 7 days prior to capsule administration (2 and 1 weeks prior to administration) and 4, 8, and 12 days after administration of the capsule. Animals were fasted for approximately 18 hr prior to blood collection. Collected blood was placed in a test tube, left at room temperature for 0.5-1 hr, before being centrifuged (3,000 rpm for 10 min). The obtained serum was used for assays of blood triglyceride levels according to GK-GPO-POD methods.
# A full automatic analyzer (Monarch, Instrumentation Laboratory, Inc.) was used for assay of triglycerides.
# The averaged value in each group was obtained from 5 animals per group.
structure (smiles),measurement,setting,value
"CC[C@H](C)C(=O)O[C@H]1C[C@H](O)C=C2C=C[C@H](C)[C@H](CC[C@@H](O)C[C@@H](O)CC(=O)O)[C@H]21 [Pravastatin alone, (+)−(3R, 5R)-3,5-dihydroxy-7-[(1S, 2S,6S,8S,8aR)-6-hydroxy-2-methyl-8-[(S)-2-methylbutyryloxy]-1,2,6,7,8,8a-hexahydro-1-naphthyl]heptanoic acid]","Blood Triglyceride Levels after administration, 4 days",[1],108.9
same,"Blood Triglyceride Levels after administration, 8 days",[1],104.0
same,"Blood Triglyceride Levels after administration, 12 days",[1],91.1
same,"Blood Triglyceride Levels after administration, 4 days",[2],108.9
same,"Blood Triglyceride Levels after administration, 8 days",[2],104.0
same,"Blood Triglyceride Levels after administration, 12 days",[2],91.1
same,"Blood Triglyceride Levels after administration, 4 days",[3],108.9
same,"Blood Triglyceride Levels after administration, 8 days",[3],104.0
same,"Blood Triglyceride Levels after administration, 12 days",[3],91.1
